In ChEMBL document CHEMBL5505964, “HDAC/NAMPT dual inhibitors overcome initial drug-resistance in p53-null leukemia cells” (Eur J Med Chem, 2024):

Experiments:
MV4-11 [1] = experiment: cells; assay type: functional, cell-based; settings: Homo sapiens; for GI50: MV4-11, time 48 hrs
Histone deacetylase 11 = target: T1, Histone deacetylase 11 (Homo sapiens, UniProt Q96DB2); experiment: Inhibition of full length human recombinant HDAC11 (1 to 347 residues) expressed in baculovirus-infected Sf9 cells using Boc-Lys-(trifluoroacetyl)-AMC as substrate preincubated with enzyme for 1 hr followed by substrate addition and measured after 2 hrs by fluorescence analysis
T1 sequence (Q96DB2 whole entry): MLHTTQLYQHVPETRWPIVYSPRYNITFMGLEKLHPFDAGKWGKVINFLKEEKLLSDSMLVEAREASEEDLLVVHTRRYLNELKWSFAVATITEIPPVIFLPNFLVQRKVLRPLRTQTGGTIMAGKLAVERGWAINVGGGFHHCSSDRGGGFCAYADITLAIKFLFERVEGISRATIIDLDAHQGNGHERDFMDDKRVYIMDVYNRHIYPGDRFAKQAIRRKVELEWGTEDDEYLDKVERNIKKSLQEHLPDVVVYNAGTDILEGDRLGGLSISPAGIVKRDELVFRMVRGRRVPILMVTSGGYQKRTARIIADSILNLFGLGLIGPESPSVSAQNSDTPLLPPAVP

Histone deacetylase 7 = target: T2, Histone deacetylase 7 (Homo sapiens, UniProt Q8WUI4); experiment: Inhibition of N-terminal GST-tagged human HDAC7 (518 to end residues) expressed in baculovirus-infected Sf9 cells using Boc-Lys-(trifluoroacetyl)-AMC as substrate preincubated with enzyme for 1 hr followed by substrate addition and measured after 2 hrs by fluorescence analysis
T2 sequence (Q8WUI4 whole entry): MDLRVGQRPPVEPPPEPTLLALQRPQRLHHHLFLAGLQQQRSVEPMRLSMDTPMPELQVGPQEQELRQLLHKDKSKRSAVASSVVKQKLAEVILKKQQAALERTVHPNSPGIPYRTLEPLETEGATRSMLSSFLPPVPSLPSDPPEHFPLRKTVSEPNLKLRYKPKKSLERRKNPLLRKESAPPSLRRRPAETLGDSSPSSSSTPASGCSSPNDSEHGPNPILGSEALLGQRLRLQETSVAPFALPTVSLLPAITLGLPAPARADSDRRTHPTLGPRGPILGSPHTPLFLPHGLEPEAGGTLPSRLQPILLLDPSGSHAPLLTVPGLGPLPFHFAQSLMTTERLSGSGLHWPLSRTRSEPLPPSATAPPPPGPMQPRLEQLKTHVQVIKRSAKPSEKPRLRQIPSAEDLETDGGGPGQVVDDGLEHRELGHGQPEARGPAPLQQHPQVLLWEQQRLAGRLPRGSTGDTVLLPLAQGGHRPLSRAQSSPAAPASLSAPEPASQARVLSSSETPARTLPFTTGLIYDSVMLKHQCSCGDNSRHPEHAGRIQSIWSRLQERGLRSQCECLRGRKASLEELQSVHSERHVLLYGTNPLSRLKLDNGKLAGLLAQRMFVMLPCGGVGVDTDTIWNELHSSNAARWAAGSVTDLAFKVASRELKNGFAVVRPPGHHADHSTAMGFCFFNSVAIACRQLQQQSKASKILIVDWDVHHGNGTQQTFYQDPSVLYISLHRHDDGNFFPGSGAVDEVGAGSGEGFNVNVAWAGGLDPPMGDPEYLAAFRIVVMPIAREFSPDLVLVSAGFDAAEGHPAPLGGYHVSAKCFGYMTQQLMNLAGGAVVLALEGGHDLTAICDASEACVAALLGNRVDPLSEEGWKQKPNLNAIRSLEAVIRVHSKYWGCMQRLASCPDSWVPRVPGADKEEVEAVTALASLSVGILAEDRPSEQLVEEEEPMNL

Histone deacetylase 8 = target: T3, Histone deacetylase 8 (Homo sapiens, UniProt Q9BY41); experiment: Inhibition of C-terminal His-tagged full length human recombinant HDAC8 (1 to 377 residues) expressed in baculovirus-infected Sf9 cells using Boc-Lys-(trifluoroacetyl)-AMC as substrate preincubated with enzyme for 1 hr followed by substrate addition and measured after 2 hrs by fluorescence analysis
T3 sequence (Q9BY41 whole entry): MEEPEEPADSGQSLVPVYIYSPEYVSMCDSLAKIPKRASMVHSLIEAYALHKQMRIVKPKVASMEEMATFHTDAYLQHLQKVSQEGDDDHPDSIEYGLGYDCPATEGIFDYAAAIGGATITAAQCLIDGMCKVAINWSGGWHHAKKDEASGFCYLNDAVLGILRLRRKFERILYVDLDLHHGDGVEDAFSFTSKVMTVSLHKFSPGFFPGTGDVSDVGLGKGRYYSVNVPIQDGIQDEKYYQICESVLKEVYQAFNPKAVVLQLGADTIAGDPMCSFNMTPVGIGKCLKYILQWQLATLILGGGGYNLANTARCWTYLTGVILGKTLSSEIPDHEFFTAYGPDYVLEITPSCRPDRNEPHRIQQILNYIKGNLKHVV

HL-60 [2] = experiment: Antiproliferative activity against p53-null human HL-60 cells assessed as inhibition of cell growth incubated for 48 hrs by resazurin dye based fluorescence analysis; assay type: functional
HL-60 [3] = experiment: Antiproliferative activity against p53-null human HL-60 cells assessed as induction of cell death incubated for 48 hrs in presence of nicotinamide mononucleotide by resazurin dye based fluorescence analysis; assay type: functional; settings: read-out: LD50 (the source's name)
MV4-11 [4] = experiment: Antiproliferative activity against human MV4-11 cells harboring wild type p53 assessed as induction of cell death incubated for 48 hrs by resazurin dye based fluorescence analysis; assay type: functional; settings: read-out: LD50 (the source's name)

| SMILES | GI50 (MV4-11 [1]) [nM] | IC50 (Histone deacetylase 11) [nM] | IC50 (Histone deacetylase 7) [nM] | IC50 (Histone deacetylase 8) [nM] | GI50 (HL-60 [2]) [nM] | CC50 (HL-60 [3]) [nM] | CC50 (MV4-11 [4]) [nM] | IC50 (MV4-11 [1]; MV4-11, 48 h) [nM] |
| --- | --- | --- | --- | --- | --- | --- | --- | --- |
| CCCNNC(=O)c1ccc(CNC(=O)c2cc3cnccc3[nH]2)cc1 | 23.6 | > 10000 | > 10000 | > 10000 | 51.2 | > 100000 | 58.2 |  |
| CCCNNC(=O)c1ccc(CNC(=O)/C=C/c2cccnc2)cc1 | 38.3 | > 10000 | > 10000 | > 10000 | 42.2 | > 100000 | 218 | 60.8 |
